Data: PubChem BioAssay AID2060604 (Molecular Pharmacology Branch, DTP, NCI, 2025)

Tested on: 379773-124-R-J2-PDC complex spheroids, viability % test/control
Experiment: Anticancer human tumor 379773-124-R-J2-PDC patient-derived endometrial carcinoma cell line growth inhibition [CLK]
Details: for IC50: curve of first compound; for viability, T/C: stronger effect = lower value
Procedure, shortened: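 Patient-derived tumor cells grown as complex spheroids with HUVEC endothelial cells and mesenchymal stem cells, treated with drug combinations. Concentrations descend in half-log steps from near clinical Cmax, or from 10 microM if Cmax unknown.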

[1] = second compound 0.0316 µM, first compound 0.0316 µM
[2] = second compound 0.0316 µM, first compound 0.1 µM
[3] = second compound 0.0316 µM, first compound 0.316 µM
[4] = second compound 0.0316 µM, first compound 1 µM
[5] = second compound 0.0316 µM, first compound 3.16 µM
[6] = second compound 0.0316 µM, first compound 10 µM
[7] = second compound 0.1 µM, first compound 0.0316 µM
[8] = second compound 0.1 µM, first compound 0.1 µM
[9] = second compound 0.1 µM, first compound 0.316 µM
[10] = second compound 0.1 µM, first compound 1 µM
[11] = second compound 0.1 µM, first compound 3.16 µM
[12] = second compound 0.1 µM, first compound 10 µM
[13] = second compound 0.316 µM, first compound 0.0316 µM
[14] = second compound 0.316 µM, first compound 0.1 µM
[15] = second compound 0.316 µM, first compound 0.316 µM
[16] = second compound 0.316 µM, first compound 1 µM
[17] = second compound 0.316 µM, first compound 3.16 µM
[18] = second compound 0.316 µM, first compound 10 µM
[19] = second compound 1 µM, first compound 0.0316 µM
[20] = second compound 1 µM, first compound 0.1 µM
[21] = second compound 1 µM, first compound 0.316 µM
[22] = second compound 1 µM, first compound 1 µM
[23] = second compound 1 µM, first compound 3.16 µM
[24] = second compound 1 µM, first compound 10 µM
[25] = second compound 3.16 µM, first compound 0.0316 µM
[26] = second compound 3.16 µM, first compound 0.1 µM
[27] = second compound 3.16 µM, first compound 0.316 µM
[28] = second compound 3.16 µM, first compound 1 µM
[29] = second compound 3.16 µM, first compound 3.16 µM
[30] = second compound 3.16 µM, first compound 10 µM
[31] = second compound 10 µM, first compound 0.0316 µM
[32] = second compound 10 µM, first compound 0.1 µM
[33] = second compound 10 µM, first compound 0.316 µM
[34] = second compound 10 µM, first compound 1 µM
[35] = second compound 10 µM, first compound 3.16 µM
[36] = second compound 10 µM, first compound 10 µM
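Further: compound exposure lasted seven days before the viability readout.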
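Wherever viability, T/C is given: 100% = DMSO vehicle control wells.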

CC(C)CC(NC(=O)C(Cc1ccccc1)NC(=O)c1cnccn1)B(O)O (stereo unspecified) + CN1CCN(c2cc(C(=O)Nc3cc4cc(-c5cnn(C)c5)ccc4cn3)ccn2)CC1
IC50 (second compound 0.0316 µM): 1.8 nM | IC50 (second compound 0.1 µM): 1.72 nM | IC50 (second compound 0.316 µM): < 0.949 nM | IC50 (second compound 1 µM): < 0.949 nM | IC50 (second compound 3.16 µM): < 0.949 nM | IC50 (second compound 10 µM): < 0.949 nM | viability, T/C (second compound 0.0316 µM, first compound 0.000949 µM): 83.2% | viability, T/C (second compound 0.0316 µM, first compound 0.003 µM): 23.3% | viability, T/C (second compound 0.0316 µM, first compound 0.00949 µM): 0.24% | viability, T/C (second compound 0.0316 µM, first compound 0.03 µM): 0.17% | viability, T/C (second compound 0.0316 µM, first compound 0.0949 µM): 0.13% | viability, T/C (second compound 0.0316 µM, first compound 0.3 µM): 0.12% | viability, T/C (second compound 0.1 µM, first compound 0.000949 µM): 84.3% | viability, T/C (second compound 0.1 µM, first compound 0.003 µM): 18.2% | viability, T/C (second compound 0.1 µM, first compound 0.00949 µM): 1.22% | viability, T/C (second compound 0.1 µM, first compound 0.03 µM): 0.15% | viability, T/C (second compound 0.1 µM, first compound 0.0949 µM): 0.19% | viability, T/C (second compound 0.1 µM, first compound 0.3 µM): 0.11% | viability, T/C (second compound 0.316 µM, first compound 0.000949 µM): 20.7% | viability, T/C (second compound 0.316 µM, first compound 0.003 µM): 1.68% | viability, T/C (second compound 0.316 µM, first compound 0.00949 µM): 0.49% | viability, T/C (second compound 0.316 µM, first compound 0.03 µM): 0.11% | viability, T/C (second compound 0.316 µM, first compound 0.0949 µM): 0.9% | viability, T/C (second compound 0.316 µM, first compound 0.3 µM): 0.12% | viability, T/C (second compound 1 µM, first compound 0.000949 µM): 0.18% | viability, T/C (second compound 1 µM, first compound 0.003 µM): 1.45% | viability, T/C (second compound 1 µM, first compound 0.00949 µM): 0.95% | viability, T/C (second compound 1 µM, first compound 0.03 µM): 0.06% | viability, T/C (second compound 1 µM, first compound 0.0949 µM): 0.3% | viability, T/C (second compound 1 µM, first compound 0.3 µM): 0.08% | viability, T/C (second compound 3.16 µM, first compound 0.000949 µM): 0.24% | viability, T/C (second compound 3.16 µM, first compound 0.003 µM): 0.69% | viability, T/C (second compound 3.16 µM, first compound 0.00949 µM): 0.24% | viability, T/C (second compound 3.16 µM, first compound 0.03 µM): 0.05% | viability, T/C (second compound 3.16 µM, first compound 0.0949 µM): 0.07% | viability, T/C (second compound 3.16 µM, first compound 0.3 µM): 0.09% | viability, T/C (second compound 10 µM, first compound 0.000949 µM): 1.09% | viability, T/C (second compound 10 µM, first compound 0.003 µM): 0.98% | viability, T/C (second compound 10 µM, first compound 0.00949 µM): 0.26% | viability, T/C (second compound 10 µM, first compound 0.03 µM): 2.17% | viability, T/C (second compound 10 µM, first compound 0.0949 µM): 0.59% | viability, T/C (second compound 10 µM, first compound 0.3 µM): 0.24%

CC1COCCN1c1cc(C2(S(C)(=N)=O)CC2)nc(-c2ccnc3[nH]ccc23)n1 (stereo unspecified) + CN1CCN(c2cc(C(=O)Nc3cc4cc(-c5cnn(C)c5)ccc4cn3)ccn2)CC1
IC50 (second compound 0.0316 µM): 2500 nM | IC50 (second compound 0.1 µM): 2820 nM | IC50 (second compound 0.316 µM): < 31.6 nM | IC50 (second compound 1 µM): < 31.6 nM | IC50 (second compound 3.16 µM): < 31.6 nM | IC50 (second compound 10 µM): < 31.6 nM | viability, T/C [1]: 98.2% | viability, T/C [2]: 95.1% | viability, T/C [3]: 80.2% | viability, T/C [4]: 74% | viability, T/C [5]: 42.8% | viability, T/C [6]: 17.2% | viability, T/C [7]: 84.2% | viability, T/C [8]: 75.7% | viability, T/C [9]: 77.5% | viability, T/C [10]: 64.9% | viability, T/C [11]: 49.3% | viability, T/C [12]: 12.5% | viability, T/C [13]: 21.9% | viability, T/C [14]: 26.2% | viability, T/C [15]: 20.1% | viability, T/C [16]: 15.6% | viability, T/C [17]: 10.6% | viability, T/C [18]: 3.29% | viability, T/C [19]: 0.11% | viability, T/C [20]: 0.2% | viability, T/C [21]: 0.96% | viability, T/C [22]: 2.48% | viability, T/C [23]: 0.1% | viability, T/C [24]: 0.06% | viability, T/C [25]: 1.57% | viability, T/C [26]: 1.16% | viability, T/C [27]: 0.14% | viability, T/C [28]: 0.1% | viability, T/C [29]: 0.12% | viability, T/C [30]: 0.1% | viability, T/C [31]: 0.14% | viability, T/C [32]: 0.36% | viability, T/C [33]: 1.74% | viability, T/C [34]: 0.18% | viability, T/C [35]: 3% | viability, T/C [36]: 0.19%

O=C(c1cc(Cc2n[nH]c(=O)c3ccccc23)ccc1F)N1CCN(C(=O)C2CC2)CC1 + CN1CCN(c2cc(C(=O)Nc3cc4cc(-c5cnn(C)c5)ccc4cn3)ccn2)CC1
IC50 (second compound 0.0316 µM): > 10000 nM | IC50 (second compound 0.1 µM): 6850 nM | IC50 (second compound 0.316 µM): < 31.6 nM | IC50 (second compound 1 µM): < 31.6 nM | IC50 (second compound 3.16 µM): < 31.6 nM | IC50 (second compound 10 µM): < 31.6 nM | viability, T/C [1]: 101% | viability, T/C [2]: 98.7% | viability, T/C [3]: 87.9% | viability, T/C [4]: 89.9% | viability, T/C [5]: 78.6% | viability, T/C [6]: 51.7% | viability, T/C [7]: 73.5% | viability, T/C [8]: 76.6% | viability, T/C [9]: 87.8% | viability, T/C [10]: 94.2% | viability, T/C [11]: 76.6% | viability, T/C [12]: 36.9% | viability, T/C [13]: 16.7% | viability, T/C [14]: 22.3% | viability, T/C [15]: 15.1% | viability, T/C [16]: 23.2% | viability, T/C [17]: 16.8% | viability, T/C [18]: 12.3% | viability, T/C [19]: 0.11% | viability, T/C [20]: 1.49% | viability, T/C [21]: 0.2% | viability, T/C [22]: 1.01% | viability, T/C [23]: 0.08% | viability, T/C [24]: 1.87% | viability, T/C [25]: 1.24% | viability, T/C [26]: 0.11% | viability, T/C [27]: 1.32% | viability, T/C [28]: 0.09% | viability, T/C [29]: 0.1% | viability, T/C [30]: 0.09% | viability, T/C [31]: 0.19% | viability, T/C [32]: 0.11% | viability, T/C [33]: 0.46% | viability, T/C [34]: 0.66% | viability, T/C [35]: 0.18% | viability, T/C [36]: 0.19%
